Results taken from ChEMBL document CHEMBL3887008, “Pyrrolinone carboxamide compounds useful as endothelial lipase inhibitors” (2016).

Molecular target: T1, Endothelial lipase (Homo sapiens, UniProt Q9Y5X9)
T1 sequence (Q9Y5X9 whole entry): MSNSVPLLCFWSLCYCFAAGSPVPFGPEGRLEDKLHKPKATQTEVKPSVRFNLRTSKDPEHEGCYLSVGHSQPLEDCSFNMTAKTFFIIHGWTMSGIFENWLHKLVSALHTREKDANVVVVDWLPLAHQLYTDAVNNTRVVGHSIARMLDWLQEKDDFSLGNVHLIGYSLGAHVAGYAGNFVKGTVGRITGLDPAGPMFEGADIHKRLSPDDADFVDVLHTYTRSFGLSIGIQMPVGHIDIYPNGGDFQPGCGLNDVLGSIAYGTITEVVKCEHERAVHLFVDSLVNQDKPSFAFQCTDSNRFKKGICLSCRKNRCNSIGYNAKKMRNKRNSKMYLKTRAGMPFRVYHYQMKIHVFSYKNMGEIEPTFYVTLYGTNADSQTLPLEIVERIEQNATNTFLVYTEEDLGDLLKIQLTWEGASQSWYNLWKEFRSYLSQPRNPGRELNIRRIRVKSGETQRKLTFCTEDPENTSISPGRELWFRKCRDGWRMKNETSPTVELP
Test: Enzymatic Assay: Endothelial lipase activity was measured using a fluorescent substrate, A10070, (Invitrogen, CA) doped into an artificial vesicle containing DMPG (Avanti Polar Lipids) as the excipient. Vesicles were prepared by combining 285 uL of 1 mMDMPG in a 1:1 mixture of MeOH and CHCl3 with 15 uL of 1 mM A10070 in a 1:1 mixture of MeOH and CHCl3. The mixture was dried under nitrogen and resuspended in 150 uL of 50 mM HEPES pH 8.0 buffer containing 100 mM NaCl and 0.2 mM EDTA. The sample was allowed to sit at rt for 15 min and then was sonicated 3x4 mins on ice with a Branson Sonicator using duty cycle 1. This preparation provides vesicles with a mole fraction of 0.05 for the FRET substrate.The enzymatic assay was measured using white, opaque 96-well half area plates. Each well contained 60 uL of assay buffer (50 mM HEPES pH 8.0, 50 mM NaCl and 1 mM CaCl2) and 2 ul of a DMSO solution containing compound of interest. Conditioned media obtained from HT-1080 cells, which were transformed by RAGE technology (Athersys) to overexpress endogenous EL, was added and the reaction was allowed to incubate for 20 min at 37deg; C. with gentle agitation. The reaction was started by the addition of 20 uL of a 1:4 dilution of vesicles. The final total reaction volume was 100 uL. The reaction rates were measured on a Gemini plate reader with an excitation wavelength of 488 nm and a emission of 530 nm. Readings were taken every 20 seconds for 10 min with agitation between each reading. The slope of the linear portion of the readout was used to calculate the rate of the reaction.
Assay type: cell-based

| IC50 | Compound |
| --- | --- |
| 27 nM | CN1CC(C(=O)NCc2ccc(Oc3ccc(Cl)c(Cl)c3)cc2)=C(O)C1=O |
| 27.1 nM | CC(=O)Nc1ccc(-c2cccc([C@@H](C)NC(=O)C3=C(O)C(=O)N(c4ccc(F)cc4F)C3)c2)cc1 |
| 43 nM | CN1CC(C(=O)NCc2ccc(Oc3ccccc3)cc2)=C(O)C1=O |
| 22.1 nM | CN1CC(C(=O)NCCCOc2cccc(Oc3ccccc3)c2)=C(O)C1=O |
